From patent US5556744A, “Methods and compositions for diagnosing and treating certain HIV infected patients” (The Trustees of the University of Pennsylvania, priority 1994, dated 1996)

Assays:
gp41 peptides = experiment: Number of gp41 peptides bound by maternal sera (Examples 3, 4); assay type: binding, HIV-1 IIIB; conditions: Table 8
Method: (§1) Radioimmunoassay (RIA) and enzyme-linked immunosorbent assay (ELISA) were performed by standard methodologies [E. Engvall, Meth. Immunol., 70:419-439 (1980); S. K. Pierce et al, J. Exp. Med., 144:1254-1262 (1976)]. Peptides were dissolved in 0.05M carbonate-bicarbonate buffer (pH 9.6) at a concentration of 10 μg/ml. Fifty μl (500 ng) of the peptides were immobilized in 96 well polyvinylchloride plates (Dynatech Laboratories, Inc.) overnight at 4° C. Plates were washed and non-specific sites were blocked with PBS containing 1% BSA overnight at 4° C.
(§2) Dilutions of HIV positive maternal sera were made in blocking buffer at dilutions of 1:50 and 1:500 and incubated in peptide coated plates overnight at 4° C. Plates were washed with PBS and incubated with 75,000 cpm of ^125 I-labelled goat anti-human IgG. The antibody was iodinated by a chloramine T method [W. V. Williams et al, Proc. Natl. Acad. Sci. USA, 85:6488-6492 (1988)]. Plates were washed, dried and counted in a gamma counter to measure specific binding. Normal human serum (i.e., HIV seronegative) was used as a control.
(§3) Alternatively, ELISA assays were performed in polystyrene plates (Dynatech Laboratories, Inc) in which 0.05% Tween 20 (Sigma Chemical Co.) was included in the washing, blocking and dilution buffers. The secondary antibody used was goat […] Ig conjugated to horseradish peroxidase (HRP) (Sigma Chemical Co). The substrate used for color development was 3,3',5,5' tetramethyl-benzidine dihydrochloride (TMB) (Sigma Chemical Co). Absorbance of samples was measured in a Dynatech MR5000 (Dynatech Laboratories, Inc.) plate reader and expressed as an optical density at wavelength of 450 nm (OD450).
(§4) The results of the binding assays are represented in Tables 3, 4, 6 and 7. The following key is used for the designation of specific binding of the maternal sera samples to the peptides: The minus sign, -, is equivalent to the specific OD450 or cpm of sera sample binding to peptide divided by the specific OD450 or cpm of NHS sample binding to peptide, which value is less than 2. The plus sign, +, is equivalent to the specific OD450 or cpm of sera sample binding to peptide divided by the specific OD450 or cpm of NHS sample binding to peptide, which value is between 2 to 3. The double plus sign, ++, is equivalent to the specific OD450 or cpm of sera sample binding to peptide divided by the specific OD450 or cpm of NHS sample binding to peptide, which value is greater than 3.
(§5) Comparisons of number of peptides which bound maternal serum samples were made between the transmission group and the nontransmission group. The data was analyzed using the unpaired student's test. For the determination of differences in the binding of specific peptides between transmission and non-transmission groups, the Spearman's rank-order correlation test was performed.

[1] = tested on: HIV-1 infected cells (MN isolate); experiment: Anti-syncytial assay (inhibition of HIV-1 MN syncytium formation, SupT1 target cells); assay type: cell-based; conditions: HIV-1 MN, SupT1 cells, 3 days; vs normal human serum
From the text: (§6) The H9 cell line (a cutaneous T lymphoma line) infected by HIV-IIIB [ATCC CRL 8543] was used in the neutralization assay. The H9 cell line infected by HIV-MN was used in the anti-syncytial assays. SupT1 and Hut78 cells were used as the target cell lines for the anti-syncytial and neutralization assays. All cell lines were obtained from the National Institutes of Health AIDS Repository (Bethesda, Md.).
To analyze the effect of the maternal serum samples on HIV-1 fusion, SupT1 cells were used as target cells in an anti-syncytial assay. Dilutions of the different maternal serum samples were made in 96 well plates in RPMI 1640 media containing 10% fetal calf serum at final dilutions of 1:4, 1:8, 1:16, 1:32, 1:64, 1:128, 1:256 or 1:512. HIV-1 infected cells (MN isolate) were then plated in the wells at a density of approximately 10^4 cells per well. SupT1 target cells were then added at 5×10^5 /well and the number of syncytia are determined after 3 days of incubation. Inhibition of syncytium formation by a serum sample was considered significant if the dilution which yielded a 50% reduction in the number of syncytia when compared to control was greater than 1:32. The average number of syncytia in the control (normal human serum) wells at the above dilutions were: 45.5, 48.5, 44, 48, 48.5, 41.5, 42 and 45.5 respectively.

HIV-IIIB viral isolate = experiment: Neutralization assay (HIV-IIIB, Hut-78 cells, p24 antigen ELISA); assay type: cell-based, HIV-1 IIIB; parameters: key to Neutralization Activity, Dilution Resulting in ≥50% Inhibition: --: (-) indicates negative (i.e. a dilution of <1:10); conditions: HIV-IIIB, Hut-78 cells, p24 OD450 after 6 days; vs normal human serum
Method: as §6
In a neutralization assay, 20 μl of maternal sera samples was placed in 96 round bottom well plates at final dilutions of 1:10, 1:90 and 1:810 in RPMI. The HIV-IIIB viral isolate was diluted in RPMI to a TCID50 of 100 units/ml. Twenty μl of the virus solution was placed in each well and the plate was incubated for one hour at 4° C. Hut-78 cells were incubated with 2 μg/ml of polybrene for one hour at 37° C. in a CO2 incubator. The HUT-78 cells were washed and resuspended in fresh RPMI to a final concentration of 4×10^6 cells/ml. Ten μl of the cell suspension was added to each well and the plate was incubated for one hour in a 37° C., CO2 incubator.
Fifteen μl of the serum/cell/virus solution was aliquoted to a new plate containing 200 μl of fresh RPMI and incubated for 6 days. After 6 days, 100 μl was used to analyze for p24 antigen. The p24 capture ELISA assay kit (Coulter Corporation, Hialeah, Fla.) was used to perform the measurements.
Further, sera samples at the same dilutions as described above were tested for residual p24 core protein or antibody to insure the results were due only to viral infection.

gp120 peptides = experiment: Number of gp120 peptides bound by maternal sera (Examples 3, 4); assay type: binding, HIV-1 IIIB; conditions: Table 8
Method: as §1, §2, §3, §4, §5

[2] = tested on: maternal serum samples (antibodies); experiment: ELISA peptide-binding of maternal sera, expanded peptide collection (Example 5); parameters: species or system human; conditions: Example 5
From the text: The gp120 and gp41 peptides used in this experiment include peptides 60 [SEQ ID NO:9], 93 [SEQ ID NO:10], 94 [SEQ ID NO:1], 95 [SEQ ID NO:11], 96 [SEQ ID NO:12], 97 [SEQ ID NO:13], 59 [SEQ ID NO:14], 106 [SEQ ID NO:15], 107 [SEQ ID NO:[…]], 1029/33 [SEQ ID NO:2], p18p [SEQ ID NO:17], B138 [SEQ ID NO:3], 466 [SEQ ID NO:4], 497 [SEQ ID NO:18], 117 [SEQ ID NO:19], F560 [SEQ ID NO:20], 35 [SEQ ID NO:5], 120 [SEQ ID NO:21], 121 [SEQ ID NO:22], 123 [SEQ ID NO:23], 36 [SEQ ID NO:24], 40 [SEQ ID NO:25], 41 [SEQ ID NO:26], 649 [SEQ ID NO:6], 53 [SEQ ID NO:7], 55 [SEQ ID NO:27], 128 [SEQ ID NO:28], 129 [SEQ ID NO:29], 132 [SEQ ID NO:30], 57 [SEQ ID NO:8], and 1103/55 [SEQ ID NO:31] from Table 2. These peptides were synthesized based on the same HIV IIIB isolate as were the peptides of Table 2. Alternative designations for these peptides are provided in brackets.
Each of the peptides was at least 85% pure, making them suitable for ELISA analyses. The average length of these peptides was 18 amino acid residues, which allows for a certain degree of local flexibility and conformational folding, thus facilitating detection of antibody species with reactivities to shaped structures.
The maternal serum samples were obtained from the Mothers/Infants Cohort Study described in Example 1. For the ELISA peptide-binding analyses performed essentially as described in Example 3, maternal serum samples were diluted to 1:50 or 1:500 with blocking buffer (1% bovine serum albumin in phosphate-buffered saline containing 0.05% Tween 20). Binding was measured using 10 μg/mL peptide per well and was considered positive if the experimental/control OD450nm ratio was ≥2. Normal (HIV seronegative) human sera were used as controls.

[3] = tested on: maternal sera (antibodies); experiment: ELISA peptide-binding of maternal sera (Example 6); parameters: species or system human
Outline: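 HIV-1 envelope peptides averaging 16 amino acids, covering external and transmembrane glycoprotein, were probed by ELISA. Third-trimester maternal sera, classed as transmitter or non-transmitter by child diagnosis, were each run on at least 40 peptides. Values give percent of sera binding a peptide.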

[4] = tested on: maternal HIV+ sera (antibodies); experiment: RIA / ELISA binding of maternal HIV+ sera to gp120 and gp41 peptides (Example 3); parameters: species or system human
Outline: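 Maternal sera, diluted 1:50 and 1:500, were bound overnight at 4°C to peptides immobilized at 10 μg/ml (pH 9.6 carbonate) and blocked with 1% BSA. Read-out was ¹²⁵I-labelled anti-human IgG counts or HRP-TMB OD450. Signal with peptide minus without was expressed relative to seronegative serum.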

Substance: HP2: gp120 peptide, amino acids 98-112, SEQ ID NO:100 (NDMVEQMHEDIISLW)
- Number of gp41 Peptides Bound (+ or ++) (gp41 peptides): 2
- Anti-Syncytial Activity, Dilution Resulting in ≥50% Inhibition [1]: 1:32
- Neutralization Activity, Dilution Resulting in ≥50% Inhibition (HIV-IIIB viral isolate): --
- Number of gp120 Peptides Bound (+/++) (gp120 peptides): 4

Substance: NATAIAVAEGTDRVIEVVQGAYRAI [1103/55]
- Binding / reactivity of maternal sera to peptide (in words) [2]: recognized by the transmission group
- Number of Non-Transmitters which bound to peptide ([3]; Non-Transmitters, N = 12): 0
- Percent of Non-Transmitters which bound to peptide ([3]; Non-Transmitters, N = 12): 0%
- Number of Transmitters which bound to peptide ([3]; Transmitters, N = 4): 0
- Percent of Transmitters which bound to peptide ([3]; Transmitters, N = 4): 0%
- Binding of maternal HIV+ serum to peptide (sera/NHS ratio) ([4]; Serum No. 1, Non-Transmission Group): - (specific OD450 or cpm of sera sample binding to peptide divided by the specific OD450 or cpm of NHS sample binding to peptide, which value is less than 2)
- Binding of maternal HIV+ serum to peptide (sera/NHS ratio) ([4]; Serum No. 2, Non-Transmission Group): ++ (which value is greater than 3)
- Binding of maternal HIV+ serum to peptide (sera/NHS ratio) ([4]; Serum No. 3, Non-Transmission Group): - (specific OD450 or cpm of sera sample binding to peptide divided by the specific OD450 or cpm of NHS sample binding to peptide, which value is less than 2)
- Binding of maternal HIV+ serum to peptide (sera/NHS ratio) ([4]; Serum No. 4, Transmission Group): ++ (which value is greater than 3)
- Binding of maternal HIV+ serum to peptide (sera/NHS ratio) ([4]; Serum No. 5, Transmission Group): - (specific OD450 or cpm of sera sample binding to peptide divided by the specific OD450 or cpm of NHS sample binding to peptide, which value is less than 2)
- Binding of maternal HIV+ serum to peptide (sera/NHS ratio) ([4]; Serum No. 6, Non-Transmission Group): ++ (which value is greater than 3)
- Binding of maternal HIV+ serum to peptide (sera/NHS ratio) ([4]; Serum No. 7, Non-Transmission Group): ++ (which value is greater than 3)
- Binding of maternal HIV+ serum to peptide (sera/NHS ratio) ([4]; Serum No. 8, Non-Transmission Group): ++ (which value is greater than 3)
- Binding of maternal HIV+ serum to peptide (sera/NHS ratio) ([4]; Serum No. 9, Non-Transmission Group): - (specific OD450 or cpm of sera sample binding to peptide divided by the specific OD450 or cpm of NHS sample binding to peptide, which value is less than 2)
- Binding of maternal HIV+ serum to peptide (sera/NHS ratio) ([4]; Serum No. 10, Transmission Group): - (specific OD450 or cpm of sera sample binding to peptide divided by the specific OD450 or cpm of NHS sample binding to peptide, which value is less than 2)
- Binding of maternal HIV+ serum to peptide (sera/NHS ratio) ([4]; Serum No. 11, Non-Transmission Group): - (specific OD450 or cpm of sera sample binding to peptide divided by the specific OD450 or cpm of NHS sample binding to peptide, which value is less than 2)
- Binding of maternal HIV+ serum to peptide (sera/NHS ratio) ([4]; Serum No. 12, Non-Transmission Group): ++ (which value is greater than 3)
- Binding of maternal HIV+ serum to peptide (sera/NHS ratio) ([4]; Serum No. 13, Transmission Group): - (specific OD450 or cpm of sera sample binding to peptide divided by the specific OD450 or cpm of NHS sample binding to peptide, which value is less than 2)
- Binding of maternal HIV+ serum to peptide (sera/NHS ratio) ([4]; Serum No. 14, Transmission Group): ++ (which value is greater than 3)
- Binding of maternal HIV+ serum to peptide (sera/NHS ratio) ([4]; Serum No. 15, Transmission Group): - (specific OD450 or cpm of sera sample binding to peptide divided by the specific OD450 or cpm of NHS sample binding to peptide, which value is less than 2)
- Binding of maternal HIV+ serum to peptide (sera/NHS ratio) ([4]; Serum No. 16, Non-Transmission Group): - (specific OD450 or cpm of sera sample binding to peptide divided by the specific OD450 or cpm of NHS sample binding to peptide, which value is less than 2)
- Binding of maternal HIV+ serum to peptide (sera/NHS ratio) ([4]; Serum No. 17, Non-Transmission Group): ++ (which value is greater than 3)
- Binding of maternal HIV+ serum to peptide (sera/NHS ratio) ([4]; Serum No. 18, Non-Transmission Group): ++ (which value is greater than 3)
- Binding of maternal HIV+ serum to peptide (sera/NHS ratio) ([4]; Serum No. 19, Transmission Group): - (specific OD450 or cpm of sera sample binding to peptide divided by the specific OD450 or cpm of NHS sample binding to peptide, which value is less than 2)
- Binding of maternal HIV+ serum to peptide (sera/NHS ratio) ([4]; Serum No. 20, Non-Transmission Group): - (specific OD450 or cpm of sera sample binding to peptide divided by the specific OD450 or cpm of NHS sample binding to peptide, which value is less than 2)
- Percent of the maternal serum samples that bound to the peptide ([4]; all 20 samples): 45%
